The source of these data is US8455451B2, “2'-fluoro substituted carba-nucleoside analogs for antiviral treatment” (Gilead Sciences, Inc., priority 2009, dated 2013).

Broadly, the EC50 is the concentration needed to bring the measured effect to its halfway point. For orientation: IC50 means the concentration that inhibits the measured activity by half.

One series concerns HCV replicon cells. Put plainly: HCV EC50 determination, replicon luciferase assay. It counts as cell-based. The following applies: Hepatitis C virus, 72 h. The procedure: Replicon cells were seeded in 96-well plates at a density of 8×10^3 cells per well in 100 μL of culture medium, excluding Geneticin. Compound was serially diluted in 100% DMSO and then added to the cells at a 1:200 dilution, achieving a final concentration of 0.5% DMSO and a total volume of 200 μL. Plates were incubated at 37° C. for 3 days, after which culture medium was removed and cells were lysed in lysis buffer provided by Promega's luciferase assay system. Following the manufacturer's instruction, 100 μL of luciferase substrate was added to the lysed cells and luciferase activity was measured in a TopCount luminometer.
(Replicon systems follow genome replication, usually without infectious particles.)

Series [1] deals with T1, wild type HCV Δ21 NS5b polymerase (Hepatitis C virus genotype 1b, UniProt Q9WMX2).
T1 construct: 75 nM HCV Δ21 NS5b polymerase
Put plainly: HCV IC50 determination, NS5b polymerase assay, wild type enzyme. The class given is biochemical. As for the experimental part: (§1) Assay Protocol: Either wild type or S282T (Migliaccio, et al, J. Biol. Chem. 2003, 49164-49170; Klumpp, et al., J. Biol. Chem. 2006, 3793-3799) mutant polymerase enzyme was used in this assay. NS5b polymerase assay (40 μL) was assembled by adding 28 μL, polymerase mixture (final concentration: 50 mM Tris-HCl at pH 7.5, 10 mM KCL, 5 mM MgCl2, 1 mM DTT, 10 mM EDTA, 4 ng/μL of RNA template, and 75 nM HCV Δ21 NS5b polymerase) to assay plates followed by 4 μL of compound dilution. The polymerase and compound were pre-incubated at 35° C. for 10 minute before the addition of 8 μL of nucleotide substrate mixture (33P-α-labeled competing nucleotide at KM and 0.5 mM of the remaining three nucleotides). The assay plates were covered and incubated at 35° C. for 90 min. Reactions were then filtered through 96-well DEAE-81 filter plates via vacuum. The filter plates were then washed under vacuum with multiple volumes of 0.125 M NaHPO4, water, and ethanol to remove unincorporated label. Plates were then counted on TopCount to assess the level of product synthesis over background controls. The IC50 value is determined using Prism fitting program.

Series [2] deals with T2, S282T mutant HCV Δ21 NS5b polymerase (Hepatitis C virus genotype 1b, UniProt Q9WMX2, S2701T).
T2 construct: 75 nM HCV Δ21 NS5b polymerase
Put plainly: biochemical. The following applies: for fold shift (S282T IC50 vs WT IC50): Note of Table II. The procedure:
as §1

Series [3] deals with T1, wild type HCV Δ21 NS5b polymerase. The following applies: read-out: WT IC50, value taken from the source in the Note column; cited from earlier work.
The target in series [4] is T2, S282T mutant HCV Δ21 NS5b polymerase. The following applies: value taken from the source in the Note column; cited from earlier work.
Series [5] deals with Huh-luc/neo replicon cells. Put plainly: Metabolism study: intracellular triphosphate analog concentration. The class given is in vitro ADME. The following applies: PD-A-8b to TP-8a versus B-7 to TP-3, Huh-luc/neo replicon cells. The text has this:
Applicants have observed that monophosphate prodrugs of nucleoside analogs with a nitrogen at the X^1 position can have enhanced activity over their counterparts with a carbon at the X^1 position. This difference in activity correlates to the amount of the active triphosphate analogs of the compounds in cells. This can be quantified by a metabolism study which quantifies the intracellular concentration of the triphosphate analogs. The higher intracellular concentration of the triphosphate metabolite correlates to the prodrug with enhanced activity.
Huh-luc/neo replicon cells containing HCV genotype 1b subgenomic replicons were maintained in Dulbecco's modified eagle medium containing glutamax supplemented with 10% heat inactivated fetal bovine serum, penicillin-streptomycin, and G418 disulphate salt solution. Cells were transferred to twelve well tissue culture plates by trypsonization and grown to confluency (0.88×10^6 cells/well). Cells were treated for 24 hours with 10 μM nucleoside, or 10 μM prodrug. After 24 hours, cells were washed 2 times with 2.0 mL ice cold 0.9% sodium chloride saline. […] Intracellular levels of the nucleoside triphosphates were quantified based on authentic standard curves by liquid chromatography coupled to tandem mass spectrometry.

[6] abbreviates: replicon cells, 3 days incubation, luciferase readout, read-out: EC50.

Like-named read-outs stand apart in the source and are kept apart here.

As for `CCOC(=O)[C@H](C)NP(=O)(OC[C@H]1O[C@@H](c2ccc3c(N)ncnn23)[C@](C)(F)[C@@H]1O)Oc1cccc2ccccc12` (stereo partly shown) [Compound B-8], the EC50 in the series with HCV replicon cells (setting [6]) fell in the range of 35 to 60 µM.
Consider `C[C@@]1(F)[C@H](O)[C@@H](COP(=O)(O)OP(=O)(O)OP(=O)(O)O)O[C@H]1c1cnc2c(=O)[nH]c(N)nn12` [TP-1], for which the half-maximal inhibitory concentration (IC50) in series [1] and in series [2] was 0.15 µM each time. Besides, the “fold shift (S282T IC50 vs WT IC50)” value in series [2] is listed as “(1 fold shift)”.
Turning to `C[C@@]1(F)[C@@H]2OP(=O)(O)OC[C@H]2O[C@@]1(C#N)c1ccc2c(N)ncnn12` [Compound 23], in the series with HCV replicon cells (setting [6]), the EC50 was in the range of 39.4 to 40.3 µM.
Turning to `C[C@@]1(F)[C@H](O)[C@@H](COP(=O)(O)OP(=O)(O)OP(=O)(O)O)O[C@@]1(C#N)c1ccc2c(N)ncnn12` [TP-2], the IC50 in series [1] came out at 0.24 µM; in series [2] it was 1.6 µM. Also, the “fold shift (S282T IC50 vs WT IC50)” value in series [2] is recorded as “(7 fold shift)”.
With `CC(C)OC(=O)[C@H](C)NP(=O)(OC[C@H]1O[C@@](C#N)(c2ccc3c(N)ncnn23)[C@](C)(F)[C@@H]1O)Oc1ccccc1` (stereo partly shown) [Compound B-3], the EC50 in the series with HCV replicon cells (setting [6]) was 16 to 28 µM.
On to `CC(C)OP1(=O)OC[C@H]2O[C@@](C#N)(c3ccc4c(N)ncnn34)[C@](C)(F)[C@@H]2O1` (stereo partly shown) [Compound 24], for which the EC50 with HCV replicon cells (setting [6]) fell in the range of 40.3 to 70.5 µM.
On the same count and under the same terms, for `CCOC(=O)[C@@H](NP(=O)(OC[C@H]1O[C@@](C#N)(c2ccc3c(N)ncnn23)[C@](C)(F)[C@@H]1O)Oc1ccccc1)C(C)C` (stereo partly shown) [Compound C-1] the value was 67 to 70 µM; for `CCC(CC)COC(=O)C(C)(C)NP(=O)(OC[C@H]1O[C@@](C#N)(c2ccc3c(N)ncnn23)[C@](C)(F)[C@@H]1O)Oc1ccccc1` (stereo partly shown) [Compound B-4], 8.4 to 19 µM.
The same measure, in the same setting: for `C[C@@]1(F)[C@H](O)[C@@H](COP(=O)(O)NCCc2c[nH]c3ccccc23)O[C@@]1(C#N)c1ccc2c(N)ncnn12` [Compound 22] the value was 31 to 45 µM.
Same read-out and setting: for `CCOC(=O)[C@H](CCS(C)(=O)=O)NP(=O)(OC[C@H]1O[C@@](C#N)(c2ccc3c(N)ncnn23)[C@](C)(F)[C@@H]1O)Oc1ccccc1` (stereo partly shown) [Compound C-6] the value was 11 µM.
`C[C@@]1(F)[C@H](O)[C@@H](COP(=O)(O)OP(=O)(O)OP(=O)(O)O)O[C@H]1c1cnc2c(N)ncnn12` came in with an IC50 in series [1] of 0.3 µM. Further, in series [2], the IC50 came out at 1.6 µM and the “fold shift (S282T IC50 vs WT IC50)” value is given as “(5.3 fold shift)”.
As to `CCOC(=O)[C@H](Cc1ccccc1)NP(=O)(OC[C@H]1O[C@@](C#N)(c2ccc3c(N)ncnn23)[C@](C)(F)[C@@H]1O)Oc1ccccc1` (stereo partly shown) [Compound C-4], in the series with HCV replicon cells (setting [6]), the EC50 was in the range of 9.8 to 31 µM.
Turning to `CCCCCCCOC(=O)[C@H](C)NP1(=O)OC[C@H]2O[C@@](C#N)(c3ccc4c(N)ncnn34)[C@](C)(F)[C@@H]2O1` (stereo partly shown) [Compound 25], in the series with HCV replicon cells (setting [6]), the EC50 lay in the range of 9.7 to 10 µM.
Turning to `CCOC(=O)[C@H](C)NP(=O)(OC[C@H]1O[C@@](C#N)(c2ccc3c(N)ncnn23)[C@](C)(F)[C@@H]1O)Oc1cccc2ccccc12` (stereo partly shown) [Compound B-6], in the series on HCV replicon cells (setting [6]), the EC50 was in the range of 3.75 to 11.1 µM.
On to `CCOC(=O)[C@H](CCSC)NP(=O)(OC[C@H]1O[C@@](C#N)(c2ccc3c(N)ncnn23)[C@](C)(F)[C@@H]1O)Oc1ccccc1` (stereo partly shown) [Compound C-2], for which the EC50 in the series with HCV replicon cells (setting [6]) was 3.9 to 12 µM.
For the compound `CC(C)(C)C(=O)SCCOP(=O)(OCCSC(=O)C(C)(C)C)OC[C@H]1O[C@@H](c2cnc3c(N)nc(N)nn23)[C@](C)(F)[C@@H]1O` [Compound A-1], the concentration giving a half-maximal response (EC50) in the series on HCV replicon cells (setting [6]) worked out at 23 µM.
Take `CCOC(=O)[C@@H]1CCCN1P(=O)(OC[C@H]1O[C@@](C#N)(c2ccc3c(N)ncnn23)[C@](C)(F)[C@@H]1O)Oc1ccccc1` (stereo partly shown) [Compound C-5]: the EC50 in the series on HCV replicon cells was 24 to 28 µM.
Regarding `CC(C)OC(=O)OCOP(=O)(OCOC(=O)OC(C)C)OC[C@H]1O[C@@](C#N)(c2ccc3c(N)ncnn23)[C@](C)(F)[C@@H]1O` [Compound 10], the EC50 with HCV replicon cells (setting [6]) fell in the range of 6.5 to 8 µM.
Same read-out and setting: for `CCOC(=O)[C@H](C)NP(=O)(OC[C@H]1O[C@@](C#N)(c2ccc3c(N)ncnn23)[C@](C)(F)[C@@H]1O)Oc1ccccc1` (stereo partly shown) [Compound B-1] the value was 1.4 to 4.3 µM.
Consider `C[C@@]1(O)[C@H](O)[C@@H](COP(=O)(O)OP(=O)(O)OP(=O)(O)O)O[C@@]1(C#N)c1ccc2c(N)ncnn12` [triphosphate of (2R,3R,4R,5R)-2-(4-aminopyrrolo[1,2-f][1,2,4]triazin-7-yl)-3,4-dihydroxy-5-(hydroxymethyl)-3-methyl-tetrahydrofuran-2-carbonitrile], for which the “fold shift (S282T IC50 vs WT IC50)” value in series [2] is listed as “WO/2009/132135 (242 fold shift)”. In addition, the IC50 in series [3] was 0.525 µM; in series [4], 111 µM.
On to `CCOC(=O)[C@H](C)NP(=O)(OC[C@H]1O[C@@H](c2cnc3c(N)ncnn23)[C@](C)(F)[C@@H]1O)Oc1ccccc1` (stereo partly shown) [PD-A-8b], for which, in the series on HCV replicon cells (setting [6]), the EC50 was 0.68 µM. Further, the “efficiency of activation of prodrug to its triphosphate analog, compared with B-7” value in series [5] was “more than two orders of magnitude more efficient”.
On to `CCOC(=O)[C@H](Cc1c[nH]c2ccccc12)NP(=O)(OC[C@H]1O[C@@](C#N)(c2ccc3c(N)ncnn23)[C@](C)(F)[C@@H]1O)Oc1ccccc1` (stereo partly shown) [Compound C-3], for which, in the series on HCV replicon cells (setting [6]), the EC50 was in the range of 43 to 84 µM.
On to `CCOC(=O)[C@H](C)NP(=O)(OC[C@H]1O[C@@H](c2ccc3c(N)ncnn23)[C@](C)(F)[C@@H]1O)Oc1ccccc1` (stereo partly shown) [Compound B-7], for which the 50% effective concentration (EC50) with HCV replicon cells (setting [6]) fell in the range of 63 to 73 µM.
`C[C@@]1(F)[C@H](O)[C@@H](COP(=O)(O)OP(=O)(O)OP(=O)(O)O)O[C@H]1c1ccc2c(N)ncnn12` registered a half-inhibitory concentration (IC50) in series [1] of 0.034 µM.
In the case of `CCOC(=O)CNP(=O)(OC[C@H]1O[C@@](C#N)(c2ccc3c(N)ncnn23)[C@](C)(F)[C@@H]1O)Oc1ccccc1` (stereo partly shown) [Compound B-5], the EC50 in the series on HCV replicon cells (setting [6]) lay in the range of 1.93 to 25.5 µM.
